Test results: ChEMBL document CHEMBL1201862, “PubChem BioAssay data set” (2004)
Activity calls are given as the source filed them.

Legend:
[1] = target: Adenosylmethionine-8-amino-7-oxononanoate aminotransferase (Mycobacterium tuberculosis, UniProt P9WQ81); experiment: Mycobacterium tuberculosis BioA enzyme inhibitor Measured in Biochemical System Using Plate Reader - 2163-02_Inhibitor_Dose_CherryPick_Activity.; assay type: functional, Mycobacterium tuberculosis UT205
[2] = inhibitors of intracellular T. cruzi replication, confirmation, NIH3T3 host cells, beta-gal luminescence (AID 2044); assay type: functional, cell-based;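 note: intracellular parasites grown in NIH/3T3 mouse fibroblasts as host cells; luminescent beta-galactosidase reporter signal from transgenic T. cruzi replicating inside host cells; inhibitors lower the luminescence signal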
[3] = cytotoxicity toward NIH3T3 fibroblasts, dose response, counter-screen, cell-based, ATP luminescence, mouse fibroblasts (AID 2010); assay type: functional;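 note: cells exposed to compound for about 90 hours before reading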
[4] = target: Protein Wnt-3a (Mus musculus, UniProt P27467); experiment: Wnt3a-driven reporter signaling inhibition, dose response, selectivity assay for Gli-SUFU antagonist project, Wnt-LIGHT cells, luminescence (AID 651570); assay type: functional; settings: read-out: IC50_Mean;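 note: Wnt-LIGHT reporter cells stimulated with conditioned medium from Wnt3a-producing cells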
[5] = target: Nuclear receptor subfamily 5 group A member 2 (Homo sapiens, UniProt O00482); assay type: functional, cell-based;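 note: HEK293T cells transfected with LRH-1 and a StAR promoter luciferase reporter; potency for inhibitors that lower LRH-1 driven reporter light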
[6] = target: Steroidogenic factor 1 (Homo sapiens, UniProt Q13285); experiment: Counterscreen for inverse agonists of the liver receptor homolog-1 (LRH-1; NR5A2): Luminescence-based cell-based high throughput dose response assay to identify inverse agonists of the Steroidogenic Factor 1 Nuclear Receptor (SF1; NR5A1).; assay type: functional
[7] = StAR promoter reporter inhibition counter-screen, dose response, counter-screen for LRH-1 inverse agonist project, cell-based, luminescence, luciferase reporter (AID 651969); assay type: functional
[8] = test system: HEK293; experiment: cells; assay type: functional, cell-based; settings: Homo sapiens
[9] = test system: HEK293; experiment: NOD1 signaling inhibitors, primary screen, cell-based, luminescence, uHTS (AID 1578); assay type: functional; settings: Homo sapiens
[10] = test system: HEK293; experiment: NOD2 signaling inhibitors in MDP-stimulated cells, cell-based, uHTS, luminescence (AID 2001); assay type: functional; settings: Homo sapiens
[11] = test system: HEK293; experiment: cells; assay type: functional, cell-based; settings: Homo sapiens; remark: listed apart in the source
[12] = test system: HEK293; experiment: cells; assay type: functional, cell-based; settings: Homo sapiens; remark: listed apart in the source
[13] = target: Nucleotide-binding oligomerization domain-containing protein 2 (Homo sapiens, UniProt Q9HC29); experiment: NOD2 signaling inhibitors, cell-based, luminescence, uHTS, HEK293 (AID 1566); assay type: functional
[14] = HepG2 cell cytotoxicity, dose response, cytotoxicity control, cherry-picked samples (AID 1159577); assay type: functional, cell-based
[15] = non-specific cell cytotoxicity, dose response, cytotoxicity control for PAX8 inhibitor project, plate reader, dry powder samples (AID 743021); assay type: functional, cell-based
[16] = P. falciparum Dd2 growth inhibitors, dose response, SYBR Green, cherry-picked samples (AID 1159567); assay type: functional, cell-based
[17] = NIH:OVCAR-3 ovarian cancer cell cytotoxicity, dose response, PAX8 inhibitor project, plate reader, dry powder samples (AID 743044); assay type: functional, cell-based
[18] = IGROV1 ovarian cancer cell cytotoxicity, dose response, PAX8 inhibitor project, plate reader, dry powder samples (AID 743043); assay type: functional, cell-based; settings: IGROV-1
[19] = target: Paired box protein Pax-8 (Homo sapiens, UniProt Q06710); experiment: inhibitors of PAX8-driven TPO luciferase reporter, dose response, RMG-I cells, cherry-pick (AID 687027); assay type: functional, cell-based;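 note: luciferase reporter driven by Pax8 target thyroperoxidase promoter measured by SteadyGlo luminescence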
[20] = target: Major prion protein (Homo sapiens, UniProt P04156); assay type: functional, cell-based
[21] = cells
[22] = ADAM10 protease inhibitors, dose response, selectivity assay for ADAM17 exosite inhibitor project, biochemical, FRET peptide substrate, recombinant human ADAM10 (AID 743259);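 note: ADAM10 enzyme cleaving a FRET peptide substrate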
[23] = target: Disintegrin and metalloproteinase domain-containing protein 17 (Homo sapiens, UniProt P78536); experiment: exosite inhibitors of ADAM17, dose response, biochemical (AID 743260)
[24] = test system: Cryptococcus neoformans; experiment: PubChem AID 686997; assay type: functional, organism-based
[25] = test system: HeLa; experiment: HeLa cell cytotoxicity, dose response, cytotoxicity control, ATP luminescence, cherry-pick samples (AID 687004); assay type: functional, cell-based
[26] = cytotoxicity in OVCAR8 ovarian cancer cells, dose response, PAX8 project, cell-based, plate reader, dry powder samples (AID 743197); assay type: functional; settings: OVCAR-8
[27] = cells; settings: HEK293
[28] = cells; settings: A549
[29] = target: T1, Polyadenylate-binding protein 1 (Homo sapiens, UniProt P11940); experiment: PABP1 MLLE–PAM2 interaction inhibitors, dose response, miRNA deadenylation inhibitor project, biochemical, fluorescence polarization, Cy5-PAM2 peptide, secondary (AID 602260); assay type: functional; settings: read-out: IC50_Mean
[30] = target: T1, Polyadenylate-binding protein 1; experiment: PABP1 MLLE–PAM2 binding inhibitor potency, dose response, biochemical, fluorescence polarization, FITC-PAM2 peptide (AID 602259); assay type: functional; settings: read-out: IC50_Mean
[31] = target: T2, Small ubiquitin-related modifier 2 (Homo sapiens, UniProt P61956); experiment: SUMO2–SIM peptide binding inhibitors, dose response, selectivity assay for SUMO1 interaction inhibitor project, biochemical, fluorescence polarization, uHTS hits (AID 624385); assay type: functional; settings: read-out: IC50_Mean
[32] = target: T3, Small ubiquitin-related modifier 1 (Homo sapiens, UniProt P63165); experiment: inhibitors of SUMO1 peptide binding, dose response, biochemical, fluorescence polarization, uHTS hits (AID 624382); assay type: functional; settings: read-out: IC50_Mean
[33] = target: T2, Small ubiquitin-related modifier 2; experiment: inhibitors of SUMO2 protein-protein interaction, dose response, selectivity assay for SUMO1 interaction inhibitor project, biochemical, FRET, human SUMO2, uHTS hits (AID 624384); assay type: functional; settings: read-out: IC50_Mean
[34] = target: T3, Small ubiquitin-related modifier 1; experiment: inhibitors of SUMO1 partner interactions, dose response, biochemical, FRET (AID 624383); assay type: functional; settings: read-out: IC50_Mean

Cn1c(=O)c2c(nc(OCc3cccnc3)n2Cc2ccccc2)n(C)c1=O
AC50 [1]: 1 µM (active)

C=C(C)CSc1nc2sc3c(c2c(=O)n1C1CCCCC1)CCN(C)C3
EC50 [2]: 0.403 µM (active) | EC50 [3]: > 60 µM (not active) | IC50 [4]: 13.5 µM (active)

COc1cc2c(cc1OC)CN(C(=O)CN1C(=O)NC3(CCC(C)CC3)C1=O)CC2 (centres undefined)
IC50 [5]: 13.4 µM (inactive) | IC50 [6]: 11.3 µM (inactive) | IC50 [7]: 35.9 µM (inactive)

Cc1nc2cc(N3CCN(C)CC3)c(NC(=O)Cc3ccccc3)cc2c(=O)n1Cc1ccccc1
IC50 [8]: > 20 µM (inactive) | EC50 [9]: > 20 µM (inactive) | IC50 [10]: > 20 µM (inactive) | IC50 [4]: 37.5 µM (inactive) | IC50 [11]: > 20 µM (inactive) | IC50 [12]: 8.5 µM (active) | EC50 [13]: 9.39 µM (active)

COc1ccccc1NC(=O)N1CCCCN2[C@H](CO)[C@H](c3ccc(-c4cccc(C)c4)cc3)[C@H]2C1
AC50 [14]: 9.66 µM (active) | AC50 [15]: 2.56 µM (active) | AC50 [16]: 1.44 µM (active) | AC50 [17]: 22.8 µM (active) | AC50 [18]: 64.1 µM (active) | AC50 [19]: 14.6 µM (active)

CCNC(=O)[C@@H]1[C@@H](CO)[C@@H]2Cn3c(ccc(-c4cccnc4)c3=O)[C@@H]2N1Cc1ccc2c(c1)OCO2
AC50 [1]: 9.24 µM (active)

Cc1cc(OCC(=O)Nc2nccs2)c2c(C)cc(=O)oc2c1
IC50 [5]: 0.168 µM (active) | IC50 [6]: 0.112 µM (active) | IC50 [7]: 35.9 µM (inactive)

Brc1ccc2nc(-c3ccco3)c(Cc3ccccc3)n2c1
IC50 [20]: 6.67 µM (active) | IC50 [21]: 113 µM (inactive)

COC(=O)C1=C(C)N(Cc2ccc(Br)cc2)C(=S)NC1c1ccc(F)cc1 (centres undefined)
IC50 [22]: 52.8 µM (inactive) | IC50 [23]: > 69.6 µM (inactive) | AC50 [24]: 23.2 µM (active) | AC50 ([24]; Cryptococcus neoformans): 40.3 µM (active) | AC50 [25]: > 52 µM (inactive) | AC50 ([25]; Homo sapiens): > 47 µM (inactive)

O=C(C1CCCC1)N1CC[C@@H]2[C@H](CO)Nc3ccc(C4=CCCCC4)cc3[C@@H]21
AC50 [14]: > 39 µM (inactive) | AC50 [26]: 33.1 µM (active) | AC50 [16]: 5.7 µM (active) | AC50 [17]: 25.5 µM (active) | AC50 [19]: 12.7 µM (active)

Cc1ccc2nc3c(cc(C(N)=S)c(=N)n3CCCOC(C)C)c(=O)n2c1
EC50 [2]: 4.43 µM (active) | EC50 [3]: 9.45 µM (active) | AC50 [27]: > 52 µM (inactive) | AC50 [28]: 33.9 µM (active)

O=C(CSc1nc(Cc2ccccc2)nc2ccccc12)Nc1ccc2c(c1)OCCO2
IC50 [20]: 5.39 µM (active) | IC50 [29]: > 66 µM (inactive) | IC50 [21]: 45.6 µM (inactive) | IC50 [30]: > 66 µM (inactive)

COc1ccc(C=NNc2ccc(S(=O)(=O)Nc3ccccc3C(=O)O)cc2[N+](=O)[O-])c(OC)c1
IC50 [31]: 3.82 µM (active) | IC50 [32]: 5.26 µM (active) | IC50 [33]: 6.34 µM (active) | IC50 [34]: 50.9 µM (inactive)
